Results taken from US8945540B2, “Compositions for enhancing the antibacterial activity of myeloperoxidase and methods of use thereof” (Exoxemis, Inc., priority 2008, dated 2015).
Like-named read-outs stand apart in the source and are kept apart here.

Tests used:
Staphylococcus aureus [1] = experiment: Microbicidal activity of the myeloperoxidase system (p-MPO, glucose oxidase, glucose) with amino acids in the presence of blood, CFU plate counts; synergy determination from these CFU; type: cell-based; conditions: for Average Viability CFU/ml 60 min / Log 10 (CFU + 1) Survivors 60 min / Log Reduction 60 min: MPO 38 U/ml, GO 33.3 U/ml; for Average Viability CFU/ml 50 min / Log Reduction 50 min: MPO 4.7 U/ml, GO 4.2 U/ml
Procedure, shortened: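 Staphylococcus aureus grown 24 hours in TSB at 35° C was washed in saline and added at a final 2-3×10^7 CFU per mL. The bacteria were mixed in 1 mL reactions with porcine myeloperoxidase, glucose oxidase, amino acids, 150 mM sodium chloride and 3% venous whole blood. Adding glucose to 150 mM started killing. After catalase addition, survivors were counted by serial dilution plating on TSA at 37° C for 24 hours.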

Staphylococcus aureus [2] = experiment: Control: microbicidal activity of the amino acid or analogue alone (no glucose, MPO, glucose oxidase) in the presence of blood; type: cell-based; conditions: for log reduction at 5000 µM: Staphylococcus aureus, 1 h, read-out: Log Reduction 60 min
Source text: As a control to determine the microbicidal activity of the amino acids alone, the foregoing procedure was followed without replication, except in the absence of glucose, MPO, and glucose oxidase.

[3] = MPO 100 μg/mL, AA 20 mM, 30 min
[4] = MPO 100 μg/mL, AA 20 mM, 60 min
[5] = Table 2, amino acid 5 mM (none: 0 mM), blood
[6] = Table 10, single amino acid 2.5 mM, in the presence of blood, 50 min
[7] = Table 13, single amino acid 2.5 mM, in the presence of blood, 50 min
[8] = Table 14, single amino acid 2.5 mM, in the presence of blood, 50 min
[9] = amino acid alone 5 mM, MPO 0, GO 0, no glucose, blood, without replication
[10] = Table 7, amino acid analogue 5 mM, blood
[11] = amino acid analogue alone 5 mM, MPO 0, GO 0, no glucose, blood
[12] = Table 3, amino acid 5 mM (none: 0 mM), blood
[13] = Table 19, amino acid (racemic, L- or D-form) 2.5 mM, 50 min
[14] = single amino acid 2.5 mM, blood

SMILES | Log 10 (CFU + 1) Survivors (Staphylococcus aureus [1]; MPO 25 μg/mL, AA 5 mM, 30 min) | Log 10 (CFU + 1) Survivors (Staphylococcus aureus [1]; MPO 25 μg/mL, AA 5 mM, 60 min) | Log 10 (CFU + 1) Survivors (Staphylococcus aureus [1]; MPO 25 μg/mL, AA […], 30 min) | Log 10 (CFU + 1) Survivors (Staphylococcus aureus [1]; MPO 25 μg/mL, AA […], 60 min) | Log 10 (CFU + 1) Survivors (Staphylococcus aureus [1]; MPO 100 μg/mL, AA 5 mM, 30 min) | Log 10 (CFU + 1) Survivors (Staphylococcus aureus [1]; MPO 100 μg/mL, AA 5 mM, 60 min) | Log 10 (CFU + 1) Survivors (Staphylococcus aureus [1]; [3]) | Log 10 (CFU + 1) Survivors (Staphylococcus aureus [1]; [4]) | Average Viability CFU/ml 60 min (Staphylococcus aureus [1]; [5]) | Log 10 (CFU + 1) Survivors 60 min (Staphylococcus aureus [1]; [5]) | Log Reduction 60 min (Staphylococcus aureus [1]; [5]) | Average Viability CFU/ml 50 min (Staphylococcus aureus [1]; [7]) | Log Reduction 50 min (Staphylococcus aureus [1]; [7]) | log reduction at 5000 µM (Staphylococcus aureus [2]; [9]) | Average Viability CFU/ml 60 min (Staphylococcus aureus [2]; [9]) | Log Reduction 60 min (Staphylococcus aureus [1]; [10]) | Average Viability CFU/ml 60 min (Staphylococcus aureus [1]; [12]) | Log 10 (CFU + 1) Survivors 60 min (Staphylococcus aureus [1]; [12]) | Log Reduction 60 min (Staphylococcus aureus [1]; [12]) | also measured
O=C(O)[C@@H]1CCCN1 [L-Proline] | 7.1 | 3.9 | 7.0 | 6.8 | 4.9 | 0.0 | 5.8 | 0.0 | 4850 CFU/ml | 3.7 | 3.7 | 1500000 CFU/ml | 1.2 | 0 | 21600000 CFU/ml | – | – | – | – | Average Viability CFU/ml 50 min (Staphylococcus aureus [1]; [6]): 1235000 CFU/ml; Log Reduction 50 min (Staphylococcus aureus [1]; [6]): 1.3; Average Viability CFU/ml 50 min (Staphylococcus aureus [1]; [8]): 1835000 CFU/ml; Log Reduction 50 min (Staphylococcus aureus [1]; [8]): 1.2
N[C@@H](CO)C(=O)O [L-Serine] | 5.0 | 0.0 | 6.8 | 1.8 | 5.0 | 0.0 | 5.8 | 0.0 | 0 CFU/ml | 0.0 | 7.4 | 835000 CFU/ml | 1.5 | 0 | 24100000 CFU/ml | – | – | – | – | Average Viability CFU/ml 50 min (Staphylococcus aureus [1]; [6]): 1175000 CFU/ml; Log Reduction 50 min (Staphylococcus aureus [1]; [6]): 1.3; Average Viability CFU/ml 50 min (Staphylococcus aureus [1]; [8]): 940000 CFU/ml; Log Reduction 50 min (Staphylococcus aureus [1]; [8]): 1.5
C[C@@H](O)[C@H](N)C(=O)O [L-Threonine] | 7.3 | 7.1 | 7.3 | 6.7 | 7.1 | 5.5 | 7.3 | 7.3 | 630000 CFU/ml | 5.8 | 1.6 | 1415000 CFU/ml | 1.2 | 0 | 23300000 CFU/ml | – | – | – | – | –
N[C@@H](Cc1c[nH]c2ccccc12)C(=O)O [L-Tryptophan] | – | – | – | – | – | – | – | – | 21150000 CFU/ml | 7.3 | 0.1 | – | – | – | 21600000 CFU/ml | – | – | – | – | log reduction at 5000 µM (Staphylococcus aureus [2]): 0
COC(=O)[C@@H](N)Cc1ccc(O)cc1.Cl [L-Tyrosine methyl ester hydrochloride] | – | – | – | – | – | – | – | – | – | – | – | – | – | – | – | 2.4 | – | – | – | Average Viability CFU/ml 60 min (Staphylococcus aureus [1]; [10]): 87000 CFU/ml; log reduction at 5000 µM (Staphylococcus aureus [2]; [11]): 0; Average Viability CFU/ml 60 min (Staphylococcus aureus [2]; [11]): 20900000 CFU/ml
N[C@@H](Cc1ccc(O)cc1)C(=O)O [L-Tyrosine] | 7.3 | 7.1 | 7.3 | 7.0 | 7.3 | 5.8 | 7.3 | 7.2 | – | – | – | 890000 CFU/ml | 1.4 | 0 | 21600000 CFU/ml | – | 630000 CFU/ml | 5.8 | 1.5 | Average Viability CFU/ml 50 min (Staphylococcus aureus [1]; [8]): 1450000 CFU/ml; Log Reduction 50 min (Staphylococcus aureus [1]; [8]): 1.3
CCOC(=O)[C@@H](N)C(C)C.Cl [L-Valine ethyl ester hydrochloride] | – | – | – | – | – | – | – | – | – | – | – | – | – | – | – | 7.4 | – | – | – | Average Viability CFU/ml 60 min (Staphylococcus aureus [1]; [10]): 0 CFU/ml; log reduction at 5000 µM (Staphylococcus aureus [2]; [11]): 0; Average Viability CFU/ml 60 min (Staphylococcus aureus [2]; [11]): 22300000 CFU/ml
CC(C)[C@H](N)C(=O)O [L-Valine] | 4.7 | 0.0 | 4.8 | 0.0 | 0.0 | 0.0 | 0.0 | 0.0 | 0 CFU/ml | 0.0 | 7.4 | – | – | 0 | 23100000 CFU/ml | – | – | – | – | Average Viability CFU/ml 50 min (Staphylococcus aureus [1]; [6]): 104500 CFU/ml; Log Reduction 50 min (Staphylococcus aureus [1]; [6]): 2.4; Average Viability CFU/ml 50 min (Staphylococcus aureus [1]; [13]): 104500 CFU/ml; Log Reduction 50 min (Staphylococcus aureus [1]; [13]): 2.4; Average Viability CFU/ml 50 min (Staphylococcus aureus [1]; [14]): 104500 CFU/ml; Log Reduction 50 min (Staphylococcus aureus [1]; [14]): 2.4
O=C(O)c1cccnc1 [Nicotinic acid] | – | – | – | – | – | – | – | – | – | – | – | – | – | 0 | 23200000 CFU/ml | – | 4150000 CFU/ml | 6.6 | 0.7 | –
O=C(O)C1CCCNC1 (centres unmarked) [Nipecotic acid] | – | – | – | – | – | – | – | – | – | – | – | – | – | – | – | 7.4 | – | – | – | log reduction at 5000 µM (Staphylococcus aureus [2]): 0
CC(=O)C(=O)O [Pyruvic acid] | – | – | – | – | – | – | – | – | – | – | – | – | – | 0 | 22100000 CFU/ml | – | 4900000 CFU/ml | 6.7 | 0.6 | –
CNCC(=O)OC.Cl [Sarcosine methyl ester hydrochloride] | – | – | – | – | – | – | – | – | – | – | – | – | – | – | – | 7.4 | – | – | – | Average Viability CFU/ml 60 min (Staphylococcus aureus [1]; [10]): 0 CFU/ml; log reduction at 5000 µM (Staphylococcus aureus [2]; [11]): 0; Average Viability CFU/ml 60 min (Staphylococcus aureus [2]; [11]): 23200000 CFU/ml
NCCS(=O)(=O)O [Taurine] | 7.3 | 7.0 | 7.3 | 7.1 | 7.3 | 5.0 | 7.3 | 5.1 | – | – | – | – | – | 0 | 21600000 CFU/ml | – | 830000 CFU/ml | 5.9 | 1.4 | –
